From US8617872B2, “Compositions for culturing spirochetes” (priority 2000, dated 2013)

What was measured:
[1] = system: Tatumella; experiment: Antibiotic susceptibility test (MICROSCAN or disc diffusion), control organism Tatumella; type: cell-based; details: total isolates 2
Source text: (§1) This example describes the preparation of a pellet used for antimicrobial susceptibility testing of a culture sample. The procedure begins with a culture (e.g., prepared in the manner described in Example 2), where serum from a patient is inoculated in GSI-1 media and allowed to grow. In order to form pellet, an aliquot of this culture sample is placed in a microcentrifuge tube along with 10% SDS solution, and centrifuged at 14,000 g to disrupt the spirochetes and maximize the number of available eptiopic sites. The disrupted spirochetes were then cultured in an alternative growth medium made up of one part GSI-1 medium, one part 6.5% lactalbumin hydrolysate, one part 2% brain heart infusion, one part 10% pluronic fluid, and one part of the isolated (disrupted) spirochetes. This inoculated alternative growth medium was then allowed to incubate in the closed micro centrifuge tube until a distinctive pellet was observed (typically 7-14 days).
(§2) Following the observation of pellet formation, the tube was vortexed and incubated at 35° C. until a MacFarlane standard of between 8 to 12% turbidity was achieved. MICROSCAN antibiotic susceptibility microtiter plates were then inoculated with (e.g., 110 μl of) inoculum and allowed to incubate at 35° C. for 16-20 hours. The microtiter plates were then scanned for growth and respective sensitivity reaction (both the control well and the growth well). Table 2 below lists the various antimicrobials tested with this sample and whether growth of the organism was inhibited (susceptible) or whether the growth of the organism was not inhibited (resistant).
(§3) This Example describes the results for susceptibility tests that were performed on a large number of patient samples positive for either Borrelia or Leptospira. […] The results presented in Table 3 reveal the varied response of different types of spirochetes to different antibiotics.

[2] = system: Borrelia; experiment: Antibiotic susceptibility test (MICROSCAN or disc diffusion) of patient samples positive for Borrelia; type: cell-based; details: total isolates 519
Source text: as §1, §2, §3

[3] = system: Y. entero gp.; experiment: Antibiotic susceptibility test (MICROSCAN or disc diffusion), control organism Y. entero gp.; type: cell-based; details: total isolates 1
[4] = system: Pseudomonas; experiment: Antibiotic susceptibility test (MICROSCAN or disc diffusion), control organism Pseudomonas; type: cell-based; details: total isolates 1
[5] = system: Leptospira; experiment: Susceptibility testing of Leptospira isolated from a patient with symptoms of multiple sclerosis; type: cell-based; details: for Antibiotic Susceptibility Results, SERUM: Leptospira culture from serum of multiple sclerosis patient; for Antibiotic Susceptibility Results, URINE: Leptospira culture from urine of multiple sclerosis patient
Description: This example describes the preparation of a pellet used for antimicrobial susceptibility testing of a culture sample. […] In order to form pellet, an aliquot of this culture sample is placed in a microcentrifuge tube along with 10% SDS solution, and centrifuged at 14,000 g to disrupt the spirochetes and maximize the number of available eptiopic sites. […] This inoculated alternative growth medium was then allowed to incubate in the closed micro centrifuge tube until a distinctive pellet was observed (typically 7-14 days).
MICROSCAN antibiotic susceptibility microtiter plates were then inoculated with (e.g., 110 μl of) inoculum and allowed to incubate at 35° C. for 16-20 hours. The microtiter plates were then scanned for growth and respective sensitivity reaction (both the control well and the growth well).

[6] = system: Treponema isolate; experiment: Antimicrobial susceptibility test (MICROSCAN plates) of a patient's Treponema isolate; type: cell-based; details: for RESULT (antibiotic susceptibility): Treponema infected patient's isolate, MICROSCAN plates, 35° C., 16-20 hours; for susceptibility profile from a specific human patient: text restating Example 7
Description: For susceptibility testing, the organisms harvested could be assayed using any suitable susceptibility assay (See, Example 7). In some embodiments of the present invention, MICROSCAN antibiotic susceptibility plates were inoculated and incubated. Following incubations, plates were scanned for growth and respective sensitivity reaction. […] For the results to be considered reliable, the no growth of organisms was accepted in the negative control well, while the positive control well had to have sufficient growth to be read. In some embodiments of the present invention, to confirm the presence or absence of growing spirochetes in the growth well, aliquots from the growth well were reinoculated with fresh growth media and after an incubation time (e.g., 7-10 days) the presence of the organisms was confirmed (e.g., by phase contrast microscopy or direct fluorescent antibody staining).
as §1
This example describes an antimicrobial susceptibility test performed for a human patient. The patient had previously been testing using GSI-1 medium (e.g., as described in Example 2) for the presence of any spirochetes. […] This culture sample was then transferred to a microcentrifuge tube, and a pellet for antimicrobial susceptibility testing was prepared as described in Example 6.
as §2

[7] = system: Leptospira; experiment: Antibiotic susceptibility test (MICROSCAN or disc diffusion) of patient samples positive for Leptospira; type: cell-based; details: total isolates 276
Source text: as §1, §2, §3

[8] = system: Borrelia and Leptospira; experiment: Susceptibility of several hundred patient samples having Borrelia and Leptospira infections (population effectiveness); type: cell-based
Description: In these experiments, several hundred patient samples were cultured on GSI-1 (e.g., as described in Example 2). These culture samples were then used to produce pellets for antimicrobial susceptibility testing as described in Example 6. The antimicrobial susceptibility tests were then carried out on each sample as described in Example 7 or by the disc diffusion method (e.g., instead of MICROSCAN) with the antimicrobials listed below in Table 3.

[9] = system: E. coli; experiment: Antibiotic susceptibility test (MICROSCAN or disc diffusion), control organism E. coli; type: cell-based; details: total isolates 1
[10] = system: Leptospira; experiment: Susceptibility testing of Leptospira isolated from a patient with symptoms of rheumatoid arthritis; type: cell-based; details: for Antibiotic Susceptibility Results, SERUM: Leptospira culture from serum of rheumatoid arthritis patient; for Antibiotic Susceptibility Results, URINE: Leptospira culture from urine of rheumatoid arthritis patient
Source text: as §1
as §2, with “well).” for “well). Table 2 below lists the various antimicrobials tested with this sample and whether growth of the organism was inhibited (susceptible) or whether the growth of the organism was not inhibited (resistant).”
This Example describes the diagnosis and treatment of a human patient with symptoms of rheumatoid arthritis. In particular, serum and urine samples from this patient were initially cultured on GSI-1 (e.g., as described in Example 2), and screened for the presence of spirochetes (e.g., as described in Example 3). […] These cultures were then used to produce pellets for antimicrobial susceptibility testing (e.g., as described in Example 6). The antimicrobial susceptibility tests were then carried out on each sample (e.g., as described in Example 7) with the antimicrobials listed below in Table 5.

[11] = system: A. lwoffii; experiment: Antibiotic susceptibility test (MICROSCAN or disc diffusion), control organism A. lwoffii; type: cell-based; details: total isolates 1
[12] = system: Borrelia burgdorferi infection in a human patient; experiment: Treatment of a human patient with Borrelia burgdorferi infection; type: in vivo; details: human patient with neurological distress, Borrelia burgdorferi positive

Molecule	Antibiotic Susceptibility Test Results, Tatumella [1] [%]	Antibiotic Susceptibility Test Results, Borrelia [2] [%]	Antibiotic Susceptibility Test Results, Y. entero gp. [3] [%]	Antibiotic Susceptibility Test Results, Pseudomonas [4] [%]	Antibiotic Susceptibility Results, SERUM [5]	Antibiotic Susceptibility Results, URINE [5]	RESULT (antibiotic susceptibility) [6]	susceptibility profile from a specific human patient [6]	Antibiotic Susceptibility Test Results, Leptospira [7] [%]	effectiveness in the population [8]	Antibiotic Susceptibility Test Results, E. coli [9] [%]	Antibiotic Susceptibility Results, SERUM [10]	Antibiotic Susceptibility Results, URINE [10]	Antibiotic Susceptibility Test Results, A. lwoffii [11] [%]	patient response to treatment [12]
C[C@H]1[C@H](NC(=O)/C(=N\OC(C)(C)C(=O)O)c2csc(N)n2)C(=O)N1S(=O)(=O)O [Aztreonam]	0	11	0	100	Resistant	Resistant	Susceptible	sensitive	15	less than 20%	100	Resistant	Resistant	100	
CO/N=C(\C(=O)N[C@@H]1C(=O)N2C(C(=O)O)=C(CSc3nc(=O)c(=O)[nH]n3C)CS[C@H]12)c1csc(N)n1 [ceftriaxone]															responded well until the medication was stopped
Amoxicillin/Clavulanate [Augmentin]	100	90	100		Resistant	Resistant	Resistant	resistance	89	over 80%	100	Susceptible	Susceptible		
